Test results reported in US6946475B1, “Anticancer calcium channel blockers” (University of Virginia Patent Foundation, priority 1999, dated 2005).
Like-named read-outs stand apart in the source and are kept apart here.

Legend:
[1] = test system: MCF-7 (breast cancer cell); test: Measurement of cellular proliferation, MCF-7 cells; type: cell-based; conditions: MCF-7, 48 hours
Method: (§1) Measurement of cellular proliferation: LNCaP cells at 2.5×10^4/well or PC3 cells at 5×10^4/well, both in a final volume of 100 μl, were plated in triplicate in standard flat bottom 96 well tissue culture plates in the presence of drug or vehicle (DMSO). Unless otherwise indicated, cells were grown for 48 hours at 37° C. in a CO2 incubator. Relative cell growth was determined with the CellTiter 96 aqueous cell proliferation assay (Promega, Madison, Wis.) as described by the manufacturer using an automated plate reader. Results were calculated in a blinded fashion and are means of triplicate determinations.
(§2) For the 48 hour proliferation, cells were cultured with calcium channel antagonists or without calcium channel antagonists. The IC50 values of the calcium channel antagonists were determined.
(§3) Using the measurement cell proliferation assay described hereinabove, the cell lines Jurkat, LNCap (prostate cancer cell), PC-31 (prostate cancer cell), DU145 (prostate cancer cell), MDA-468 (breast cancer cell), MDA-36 (Breast cancer cell), MCF-7 (breast cancer cell), MIA PaCa-2 (pancreatic cancer cell), Hep G2 (liver cancer cell), A549 (non-small cell lung cancer cells), NCI H460 (non-small cell lung cancer cells), HT-29 (colon cancer cell), HCT-116 (colon cancer cell) and SK OV-3 (ovarian cancer cell) were cultured in the presence of TH-1177, TH-1205, TH-1201, TH-2109, TH-2029, TH-2043, TN-2085 and TH-2279.

Ca2+ entry in PC3 cells = test: Measurement of intracellular Ca2+ concentration (Ca2+ entry), PC3 cells; type: cell-based, human
Method: Cells were incubated in growth media containing 1 μM of the acetoxy-methyl ester of the Ca^2+-sensitive fluorescent dye indo-1 (indo-1/AM, Molecular Probes, Eugene, Oreg.) for 1 hour at 37° C. Cells were washed three times in buffer A (10 mM HEPES, pH 7.4, 1 mM MgCl2, 3 mM KCl, 1 mM CaCl2, 140 mM NaCl, 0.1% glucose, 1% fetal bovine serum) and suspended to a final concentration of 10^6/ml. Prior to stimulation, cells were warmed to 37° C. Prior to stimulation, cells were also incubated with drug, calcium channel antagonists and the IC50 values were determined. Changes in [Ca^2+] were monitored in an SLM 8100C spectrofluorometer (SLM/Aminco, Urbana, Ill.) using previously published methods, Haverstick, et al. (1998) Cell Calcium, 23: 361-368; Densmore, et al. (1996) Am. J. Physiol., 271:C1494-1503, incorporated herein by reference.
Calcium influx into the cell is suitably stimulated using either (1) a physiological ligand or (2) an endoplasmic reticulum (ER) ATPase inhibitor. Preferably, a physiological ligand is used to stimulate calcium influx into the cell.
Ir. the experiment depicted in FIG. 4A, TH-1177 was added before the cells were stimulated with ATP. […] By 70 s after ATP addition, release of Ca^2+ from the internal storage pool was largely over (for example, see FIG. 5 below) and the maintenance of elevations of [Ca^2+]i over baseline was dependent on Ca entry from the extracellular compartment. […] Therefore, TH-1177 interacts with the Ca^2+ influx pathway.
The efficiency of TH-1177 at blocking Ca^2+ entry was assessed by comparison to the effect of chelation of extracellular Ca^2+ with EGTA, which was considered 100% inhibition of Ca^2+ entry.
The data presented above provide that TH-1177 inhibited the stimulated increase in [Ca^2+]i by blockage of Ca^2+ entry. […] This increase represented release of Ca^2+ from the internal storage pool. Addition of TH-1177 had no effect on the size of this change in [Ca^2+]i. […]

[2] = test system: DU145 (prostate cancer cell); test: Measurement of cellular proliferation, DU145 cells; type: cell-based; conditions: DU 145, 48 hours
Method: as §1, §2, §3

Jurkat cells = test: Measurement of cellular proliferation, Jurkat cells; type: cell-based; conditions: Jurkat, 48 hours; read-out: PROLIFERATION IC50 Jurkat
Method: as §1, §2, §3

[3] = test system: LNCaP prostate cancer cells; test: Measurement of cellular proliferation, LNCaP cells; type: cell-based, human
Method: as §1, §2, §3

[4] = test system: PC3 prostate cancer cells; test: Measurement of cellular proliferation, PC3 cells; type: cell-based, human
Method: as §1, §2, §3

[5] = test system: NCI H460 (non-small cell lung cancer cells); test: Measurement of cellular proliferation, NCI H460 cells; type: cell-based; conditions: NCI H460, 48 hours; read-out: PROLIFERATION IC50 NCl H460
Method: as §1, §2, §3

[6] = test system: SK OV-3 (ovarian cancer cell); test: Measurement of cellular proliferation, SK OV-3 cells; type: cell-based; conditions: SK-OV-3, 48 hours
Method: as §1, §2, §3

IC50 [1]: 21 µM
IC50 (Ca2+ entry in PC3 cells; EGTA chelation of extracellular Ca2+ considered 100% inhibition, read-out: IC50 for blocking Ca2+ entry, PC3 cells): 16 µM
IC50 [2]: 19 µM
IC50 (Jurkat cells): 8 µM
IC50 ([3]; FIG. 6A, 48 hours, read-out: IC50 for inhibition of LNCaP proliferation): 4 µM
IC50 ([4]; FIG. 6B, 48 hours, read-out: IC50 for inhibition of PC3 proliferation): 14 µM
IC50 ([4]; PC-3, 48 hours, read-out: PROLIFERATION IC50 PC-3): 15 µM
IC50 [6]: 25 µM
Structure (SMILES): COc1ccc(CCN2CCC[C@H]2COC(c2ccccc2)c2ccc(Cl)cc2)cc1 (stereo partly shown) [TH-1177]
Effect on increase in [Ca2+]i stimulated by ATP (Ca2+ entry in PC3 cells; PC3, 1 mM ATP, drug added before): concentration dependent inhibition
Effect on release of Ca2+ from the internal storage pool (Ca2+ entry in PC3 cells; PC3, EGTA in medium, 1 mM ATP): no effect
Cell growth in presence of compound ([3]; LNCaP, 1 μM or 3 μM, FIG. 7, growth resumed after removal): growth was stopped
Effect of prior treatment on response to second exposure ([3]; LNCaP, FIG. 8): no effect
IC50 [5]: 15 µM
